Columns and labels:
[1] = microbe, parasite or virus in culture; conditions: Mycobacterium tuberculosis, 96 h, read-out: pIC50 (converted)
[2] = microbe, parasite or virus in culture; conditions: Mycobacterium tuberculosis, 72 h, read-out: pIC50 (converted)

Structure (SMILES) | IC50 [1] [µM] | IC50 [2] [µM]
CCc1nnsc1C(=O)NC(CC(C)C)C(=O)OC (stereo not drawn) | > 50.1 | > 50.1
CCc1noc(CNc2cc3c(cc2Cl)OCCO3)n1 | 8.97 | 26.8
COc1ccc(C)cc1CN1CCn2cccc2C1C (stereo not drawn) | 45.6 | 18.5
CC(C)n1nccc1NC(=O)NCCc1nc2ccc(F)cc2n1C | > 50.1 | > 50.1
CCc1nnc(NC(=O)N(CCOC)Cc2ccc(C)o2)s1 | > 50.1 | > 50.1
O=C(CCSc1ccc(F)cc1)N1CCN(c2cnccn2)CC1 | > 50.1 | > 50.1
CC(C)N(C)S(=O)(=O)N(Cc1cccs1)Cc1cccs1 | > 50.1 | 24.8
CC(Nc1ccc(Br)cc1)c1nc(C2CC2)no1 (stereo not drawn) | 0.994 | 2.01
O=C(c1ccc(NCc2cccc(F)c2)cc1)N1CCCC1 | > 50.1 | > 50.1
CC(Nc1ccc2c(c1)CCC2)c1nc(C2CC2)no1 (stereo not drawn) | 0.183 | 0.704
Cc1noc(C(C)Nc2ccc3c(c2)CCC3)n1 (stereo not drawn) | 3.32 | 5.68
COCCN(C)CC1CCCN1S(=O)(=O)c1cccc(F)c1F (stereo not drawn) | > 50.1 | 15
Cc1cc(CN(C)Cc2csc(-c3ccc(C(C)C)cc3)n2)no1 | 37.9 | > 50.1
CC(C)Oc1ccc(C(=O)NCc2ccnc(N3CCCC3)c2)cn1 | 45.1 | 36.9
COC(=O)CSCc1nc(-c2ccc(Cl)cc2)no1 | > 50.1 | > 50.1
COc1ccnc(N2CCCN(c3nc(C4CC4)ns3)CC2)n1 | > 50.1 | > 50.1
CCOCC(=O)NC(C)Cc1ccccc1Br (stereo not drawn) | 0.742 | 0.928
CCc1nc2n(n1)CC(NCc1nc(C)c(C)o1)CC2 (stereo not drawn) | > 50.1 | > 50.1
CN(C)c1ccc(C(=O)N2CCCC2c2ccc(Cl)cc2)nn1 (stereo not drawn) | > 50.1 | > 50.1
CN(C)c1ccc(C(=O)N2CCCC2c2cnn(C)c2)nn1 (stereo not drawn) | > 50.1 | > 50.1
CCCc1cc(C(=O)NCCCC(=O)N2Cc3ccccc3C2)[nH]n1 | > 50.1 | > 50.1
Cc1nc(-c2ccc(NCCc3ccc(O)cc3)nc2)[nH]c(=O)c1C | 32.1 | 42.1
COC(=O)COc1ccc(-c2noc(C3CCCO3)n2)cc1 (stereo not drawn) | 18.6 | 31.9
O=C(c1cc2c([nH]c1=O)CCC2)N1CCCC1c1ccccc1 (stereo not drawn) | > 50.1 | > 50.1
CCN(C(=O)CN1CCCC1Cc1ccccc1)c1ccccc1 (stereo not drawn) | > 50.1 | 44.2

Structure (SMILES) | IC50 [1] [µM] | IC50 [2] [µM]
CN(C(=O)CN1CCCC1Cc1ccccc1)c1ccccc1 (stereo not drawn) | > 50.1 | 33
Cc1nc(CN2CCC(CNC(=O)NCCC3CCC3)CC2)oc1C | 0.791 | 1.06
Cc1cc(CN2CCN(C(=O)CCc3cccs3)CC2)on1 | 10.5 | 4.03
COc1cc(C(=O)N(Cc2cccs2)C2CC2)cc2c1OCCO2 | > 50.1 | > 50.1
CN(Cc1ccc(Cl)s1)C(=O)Cn1nc(-c2ccc(F)cc2)oc1=O | > 50.1 | > 50.1
COc1ccc(NC(=O)CNc2ccc(Br)cc2F)cc1 | > 50.1 | > 50.1
COC(=O)[C@H](C)NC(=O)c1cc(-c2cccc(Cl)c2)no1 | 26 | 42.5
COc1cccc(CN(C)C(=O)CSc2ccc3c(c2)OCCO3)c1 | 25 | > 50.1
c1cnnc(N2CCCC2CNCc2nc3ccccc3o2)c1 (stereo not drawn) | 32.7 | 29.6
CS(=O)(=O)NCC1CCCN(C(=O)Nc2ccccc2Cl)C1 (stereo not drawn) | > 50.1 | > 50.1
CN(Cc1cnn(C)c1)C(=O)c1ccc(=O)n(C)n1 | > 50.1 | > 50.1
Cc1nccc(C(=O)N2CCCN(Cc3cnn(C(C)C)c3)CC2)n1 | > 50.1 | > 50.1
CC(=O)N1CCCC1c1nnc2n1CCCCC2 (stereo not drawn) | > 50.1 | > 50.1
Cc1ccccc1C(=O)N1CC[C@@H]2CN(c3ncccn3)CCO[C@@H]2C1 | > 50.1 | > 50.1
O=C(c1cccs1)N1CCC2(CC1)CN(c1ccsc1)C(=O)CO2 | > 50.1 | > 50.1
COc1cccc(C(=O)N2CCOC3(CCCN(C(C)=O)C3)C2)c1 (stereo not drawn) | > 50.1 | > 50.1
CC(C)CCN1Cc2c(C(=O)O)ncn2-c2ccccc2S1(=O)=O | > 50.1 | > 50.1
COc1ccc(CN2CC[C@@H](O)[C@@H]2Cc2cnn(C)c2)cc1 | > 50.1 | > 50.1
O=C1[C@H]2CN(Cc3ccco3)C[C@H]2CN1c1ccsc1 | 14.2 | 8.77
CN(C)CCNC(=O)c1ccn(-c2ccc3ccccn23)n1 | > 50.1 | > 50.1
Cn1ccnc1CN1CCC2(CC(=O)N(c3cncnc3)C2)C1 (stereo not drawn) | > 50.1 | > 50.1
CN(C)CCN1CCOCC2(C1)CN(Cc1ccsc1)CCO2 (stereo not drawn) | > 50.1 | > 50.1
Cc1ccc(N(CC(=O)c2ccc(Br)cc2)C2=NCCCCC2)cc1 | 23.1 | 11.1
CCOc1ccc(N(CC(=O)c2ccccc2)C2=NCCCCC2)cc1 | 27.6 | 22.4

Source: ChEMBL document CHEMBL3988442, “University of Dundee, Small-Polar-MMV Screening Library” (2021)
